Reference: the supplement of paper PMC6045584
± gives the standard deviation of the averaged measurements.

Tests used:
CRIZOTINIB = compound: C[C@@H](Oc1cc(-c2cnn(C3CCNCC3)c2)cnc1N)c1c(Cl)ccc(F)c1Cl [CRIZOTINIB]; assay: surviving fraction relative to DMSO-only wells; higher = less growth inhibition; conditions: exposure time: 5 days
Procedure, shortened: (§1)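 Surviving fraction is CellTiter-Glo luminescence divided by the median of wells given DMSO only. For this, log-phase tumour cell lines went into 384-well plates at 250–500 cells per well and, 24 hours later, into five days of continuous inhibitor exposure at 0.5, 1, 5, 10, 50, 100, 500 and 1000 nM. Lines were screened three times and retained only if replicate Pearson r >0.7 and median Z' >0.3.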

ABIRATERONE = compound: C[C@]12CC[C@H](O)CC1=CC[C@@H]1[C@@H]2CC[C@]2(C)C(c3cccnc3)=CC[C@@H]12 [ABIRATERONE]; assay: as above; conditions: exposure time: 5 days
Procedure, shortened: as §1

Test System | surviving fraction (CRIZOTINIB; 0.5 nM) | surviving fraction (CRIZOTINIB; 1 nM) | surviving fraction (CRIZOTINIB; 10 nM) | surviving fraction (CRIZOTINIB; 500 nM) | surviving fraction (CRIZOTINIB; 1000 nM) | surviving fraction (ABIRATERONE; 0.5 nM) | surviving fraction (ABIRATERONE; 1 nM) | surviving fraction (ABIRATERONE; 5 nM) | surviving fraction (ABIRATERONE; 10 nM) | surviving fraction (ABIRATERONE; 50 nM) | surviving fraction (ABIRATERONE; 100 nM) | surviving fraction (ABIRATERONE; 500 nM) | surviving fraction (ABIRATERONE; 1000 nM) | surviving fraction (CRIZOTINIB; 5 nM) | surviving fraction (CRIZOTINIB; 50 nM) | surviving fraction (CRIZOTINIB; 100 nM)
DU4475 BREAST | 0.991 ± 0.16 | 1 ± 0.12 | 0.947 ± 0.17 | 0.611 ± 0.05 | 0.389 ± 0.057 | 0.872 ± 0.039 | 1.02 ± 0.19 | 0.991 ± 0.14 | 0.983 ± 0.12 | 0.989 ± 0.15 | 0.917 ± 0.32 | 0.998 ± 0.23 | 0.938 ± 0.34 |  |  | 
MDAMB468 BREAST | 1.08 ± 0.018 | 1.12 ± 0.072 | 1.1 ± 0.094 | 0.666 ± 0.039 | 0.276 ± 0.007 | 0.965 ± 0.013 | 1.04 ± 0.034 | 0.997 ± 0.079 | 1.07 ± 0.052 | 1.18 ± 0.13 | 1.12 ± 0.053 | 1.05 ± 0.11 | 0.961 ± 0.09 | 1.11 ± 0.023 | 1.16 ± 0.029 | 1.06 ± 0.015
LNCAP PROSTATE | 1.01 ± 0.15 |  | 0.924 ± 0.094 | 0.653 ± 0.063 | 0.425 ± 0.065 | 0.875 ± 0.08 | 0.996 ± 0.24 | 0.92 ± 0.026 | 0.869 ± 0.11 | 0.93 ± 0.1 | 0.976 ± 0.15 | 0.84 ± 0.12 | 0.791 ± 0.14 |  | 0.872 ± 0.061 | 0.904 ± 0.12
SNU475 LIVER | 1.03 ± 0.029 | 1.08 ± 0.012 | 1.1 ± 0.027 | 0.948 ± 0.052 | 0.809 ± 0.024 | 1.03 ± 0.024 | 1.07 ± 0.035 | 1.05 ± 0.035 | 1.06 ± 0.045 | 1.02 ± 0.03 | 1.02 ± 0.071 | 1 ± 0.085 | 1.04 ± 0.016 | 1.08 ± 0.062 | 1.01 ± 0.016 | 1.02 ± 0.03
HUO3N1 BONE | 1.03 ± 0.016 | 1.02 ± 0.049 | 1.07 ± 0.083 |  | 0.787 ± 0.061 | 1.03 ± 0.019 | 1.0307 ± 0.00058 | 1.07 ± 0.049 | 1.11 ± 0.025 | 1.07 ± 0.035 | 1.11 ± 0.029 | 1.02 ± 0.012 | 0.995 ± 0.046 | 1.117 ± 0.0087 |  | 
HCC1806 BREAST | 1.02 ± 0.13 | 1.09 ± 0.056 |  | 0.634 ± 0.036 | 0.318 ± 0.007 | 1.12 ± 0.11 | 1.08 ± 0.17 | 1.19 ± 0.024 | 1.08 ± 0.021 | 1.19 ± 0.051 | 1.2 ± 0.11 | 1.05 ± 0.085 | 0.953 ± 0.12 | 1.1 ± 0.065 | 1.13 ± 0.066 | 
COLO320DM LARGE INTESTINE | 1.13 ± 0.11 | 1.12 ± 0.055 | 1.04 ± 0.092 | 0.622 ± 0.015 | 0.398 ± 0.043 | 1.13 ± 0.084 | 1.09 ± 0.033 | 1.11 ± 0.07 | 1.17 ± 0.057 | 1.26 ± 0.19 | 1.1 ± 0.062 | 1.2 ± 0.38 | 1.02 ± 0.027 | 1.11 ± 0.056 | 1.21 ± 0.051 | 1.12 ± 0.092
ZR751 BREAST |  | 1.07 ± 0.14 |  | 0.818 ± 0.095 | 0.747 ± 0.07 | 1.1 ± 0.11 | 1.18 ± 0.16 | 1.15 ± 0.1 | 1.19 ± 0.099 | 1.09 ± 0.19 | 1.08 ± 0.17 | 0.854 ± 0.13 | 0.731 ± 0.21 | 0.926 ± 0.024 | 1.07 ± 0.1 | 
LM7 BONE |  | 1.01 ± 0.043 |  | 0.591 ± 0.046 | 0.221 ± 0.0062 | 0.954 ± 0.014 | 0.963 ± 0.097 | 1.07 ± 0.15 | 1.01 ± 0.026 | 1.05 ± 0.021 | 1.06 ± 0.094 | 0.97 ± 0.058 | 0.979 ± 0.038 | 1.07 ± 0.067 | 1.04 ± 0.051 | 1.12 ± 0.07
SKBR3 BREAST | 1.12 ± 0.084 | 1.1 ± 0.046 | 1.14 ± 0.25 | 1 ± 0.12 |  | 0.995 ± 0.11 | 1.07 ± 0.073 | 1.2 ± 0.17 | 0.924 ± 0.1 | 1.11 ± 0.18 | 1.14 ± 0.068 | 1.08 ± 0.1 | 0.918 ± 0.18 | 1.09 ± 0.03 |  | 1.03 ± 0.046
SCC36 HEADNECK | 1.05 ± 0.11 | 1.06 ± 0.026 | 1.24 ± 0.1 | 0.552 ± 0.072 | 0.301 ± 0.025 | 1.04 ± 0.094 | 1.09 ± 0.022 | 1.24 ± 0.08 | 1.14 ± 0.072 | 1.15 ± 0.046 | 1.1 ± 0.15 | 1.02 ± 0.061 | 1.02 ± 0.034 | 1.2 ± 0.088 | 1.13 ± 0.17 | 1.07 ± 0.22
